# Assay results published in patent US11382956B2, “Amylin analogues” (Zealand Pharma A/S, priority 2016, dated 2022).
# Numbered stars: 1 amine (or outer) side, 2 acyl side, 3 side chain; on linkers, the order of the positions; unused ones are H or OH. Bridge positions count the residues as written; N and C are the ends. Square brackets hold non-standard residues; d marks the D form. Peptide text beside a SMILES is read from it. * marks the point of attachment. C20 diacid = O=C(O)CCCCCCCCCCCCCCCCCCC(=O)*; γGlu = O=C(O)[C@H](CCC(=O)[*:2])N[*:1]; Hyp = O=C(O)[C@@H]1C[C@@H](O)CN1; NMeI = CC[C@H](C)[C@H](NC)C(=O)O; Aad = N[C@@H](CCCC(=O)O)C(=O)O; Orn = NCCC[C@H](N)C(=O)O; Sar = CNCC(=O)O
# Key:
# [1] = target: T1, recombinant human calcitonin receptor (hCT-R) (Homo sapiens, UniProt P30988); test: hCT-R cAMP assay (AlphaScreen) in 1321N1 cells; assay type: cell-based; conditions: cAMP formation, 45 min stimulation
# T1 construct: host or cells: human astrocytoma cell line 1321N1
# T1 sequence (P30988 25-474): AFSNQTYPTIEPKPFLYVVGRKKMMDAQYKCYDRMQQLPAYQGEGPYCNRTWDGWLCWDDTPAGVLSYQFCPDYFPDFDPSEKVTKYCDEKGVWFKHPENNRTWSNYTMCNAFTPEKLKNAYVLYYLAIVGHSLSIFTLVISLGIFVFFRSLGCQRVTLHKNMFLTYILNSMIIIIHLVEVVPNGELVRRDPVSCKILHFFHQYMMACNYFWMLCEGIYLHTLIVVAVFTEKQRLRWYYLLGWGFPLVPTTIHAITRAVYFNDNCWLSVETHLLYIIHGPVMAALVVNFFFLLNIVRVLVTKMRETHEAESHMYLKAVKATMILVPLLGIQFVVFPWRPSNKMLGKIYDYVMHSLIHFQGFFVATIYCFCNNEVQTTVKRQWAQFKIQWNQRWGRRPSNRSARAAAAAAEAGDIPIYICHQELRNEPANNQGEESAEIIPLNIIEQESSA
# Outline: (§1)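 1321N1 astrocytoma cells expressing recombinant human calcitonin receptor alone or with RAMP3 (AMY3) stimulated 45 min at room temperature with peptide in IBMX-containing buffer. cAMP quantified by AlphaScreen after 1 h bead incubation; EC50 fitted from at least 7 concentrations.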
# [2] = target: T2, recombinant human amylin 3 receptor (hAMYR3) (Homo sapiens, UniProt O60896+P30988); test: hAMYR3 cAMP assay (AlphaScreen) in 1321N1 cells; assay type: cell-based; conditions: cAMP formation, 45 min stimulation
# T2 construct: host or cells: human astrocytoma cell line 1321N1
# T2 sequence (P30988 25-474): T1 sequence (P30988 25-474)
# T2 sequence (O60896 24-148 partner): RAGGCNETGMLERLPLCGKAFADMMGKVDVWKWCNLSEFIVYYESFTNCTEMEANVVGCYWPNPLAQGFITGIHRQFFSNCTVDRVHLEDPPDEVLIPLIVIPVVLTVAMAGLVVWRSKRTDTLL
# Outline: as §1
# [3] = Assessment of physical stability: fibril formation by Thioflavin T fluorescence; assay type: physicochemical; parameters: key: FND = fibrillation not detected; FD = fibrillation detected; conditions: 1 mg/mL peptide; for Fibrillation (in buffer) pH4 acetate: 50 mM acetate buffer pH 4.0, 96 hours at 40° C.; for Fibrillation (in buffer) pH7 histidine: 50 mM histidine buffer pH 7.0, 96 hours at 40° C.; for Fibrillation (in buffer) pH7 phosphate: 50 mM phosphate buffer pH 7.0, 96 hours at 40° C.
# Method: Solutions containing (i) 1 mg/mL of test peptide, 40 μM ThT and 50 mM phosphate (Ph) buffer (pH 7.0), (ii) 1 mg/mL of test peptide, 40 μM ThT and 50 mM histidine (His) buffer (pH 7.0), and (iii) 1 mg/mL of test peptide, 40 μM ThT and 50 mM acetate (Ac) buffer (pH 4.0), were loaded in a 96-well black fluorescence plate (clear bottom) in triplicate. Data were collected at fixed intervals of 10 min, each preceded by 300 s of automixing (agitation), over a period of 96 hours at 40° C. Physical stability is determined by measuring the fluorescence intensity over time. A significant increase in intensity is rated as fibrillation detected (FD).
# [4] = Assessment of chemical stability in 40 mM buffers at 40° C. (RP-HPLC); assay type: physicochemical; conditions: 1 mg/mL; for % degradation after 72 h at 40° C. pH7 phosphate: phosphate buffer pH 7, 72 h; for % degradation after 72 h at 40° C. pH4 acetate: acetate buffer pH 4, 72 h; for % degradation after 72 h at 40° C. pH6 phosphate: phosphate buffer pH 6, 72 h
# Outline: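 Peptides at 1 mg/mL in 40 mM acetate pH 4 or phosphate pH 6 and 7 were held at 40° C for 3 and 14 days. Main-peak area-% by C8 RP-HPLC, UV 220 nm; % degradation = change in main-peak area-% versus t=0.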
Structure (SMILES),EC50 [1] [nM],EC50 [2] [pM],Fibrillation (in buffer) pH4 acetate [3],Fibrillation (in buffer) pH7 histidine [3],Fibrillation (in buffer) pH7 phosphate [3],% degradation after 72 h at 40° C. pH7 phosphate [4] [%],% degradation after 72 h at 40° C. pH4 acetate [4] [%],% degradation after 72 h at 40° C. pH6 phosphate [4] [%],"% degradation after 14 days at 40° C. pH4 acetate ([4]; acetate buffer pH 4, 14 days) [%]","% degradation after 14 days at 40° C. pH6 phosphate ([4]; phosphate buffer pH 6, 14 days) [%]","% degradation after 14 days at 40° C. pH7 phosphate ([4]; phosphate buffer pH 7, 14 days) [%]"
"CC[C@H](C)[C@@H](C(=O)N[C@@H](CC(C)C)C(=O)N[C@@H](CO)C(=O)N[C@@H](CO)C(=O)N[C@H](C(=O)N[C@@H](CCC(=O)O)C(=O)N[C@H](C(=O)NCC(=O)N[C@@H](CO)C(=O)N[C@@H](CC(N)=O)C(=O)N[C@H](C(=O)N1C[C@H](O)C[C@H]1C(N)=O)[C@@H](C)O)C(C)C)[C@@H](C)O)N(C)C(=O)[C@H](C)NC(=O)CN(C)C(=O)[C@H](Cc1ccccc1)NC(=O)[C@@H](NC(=O)[C@H](C)NC(=O)[C@H](CCCNC(=N)N)NC(=O)[C@H](CCC(N)=O)NC(=O)[C@H](CC(C)C)NC(=O)[C@H](Cc1ccccc1)NC(=O)[C@H](CCCC(=O)O)NC(=O)[C@H](C)NC(=O)[C@H](CC(C)C)NC(=O)[C@H](CCCNC(=N)N)NC(=O)[C@H](CCC(=O)O)NC(=O)[C@@H](NC(=O)[C@H](C)NC(=O)[C@@H]1CCCNC(=O)C[C@H](NC(=O)[C@H](CCCNC(=N)N)NC(=O)CC[C@H](NC(=O)CCCCCCCCCCCCCCCCCCC(=O)O)C(=O)O)C(=O)NCC(=O)N[C@@H]([C@@H](C)O)C(=O)N[C@@H](C)C(=O)N[C@@H]([C@@H](C)O)C(=O)N1)[C@@H](C)O)[C@@H](C)O [Compound 25, [19CD]-isoGlu-RD()GTAT-Orn()-ATERLA-Aad-FLQRATF-Gly(Me)-A-Ile(Me)-LSSTEVGSNT-Hyp-NH2] ({C20 diacid-γGlu}-RDGTAT[Orn]ATERLA[Aad]FLQRATF[Sar]A[NMeI]LSSTEVGSNT[Hyp]-NH2; lactam 2-7)",0.844,336,FND,FND,FND,<1,–,–,–,–,–
"CC[C@H](C)[C@@H](C(=O)N[C@@H](CC(C)C)C(=O)N[C@@H](CO)C(=O)N[C@@H](CO)C(=O)N[C@H](C(=O)N[C@@H](CCC(=O)O)C(=O)N[C@H](C(=O)NCC(=O)N[C@@H](CO)C(=O)N[C@@H](CC(N)=O)C(=O)N[C@H](C(=O)N1C[C@H](O)C[C@H]1C(N)=O)[C@@H](C)O)C(C)C)[C@@H](C)O)N(C)C(=O)[C@H](C)NC(=O)CN(C)C(=O)[C@H](Cc1ccccc1)NC(=O)[C@H](CC(N)=O)NC(=O)[C@H](C)NC(=O)[C@H](CCCNC(=N)N)NC(=O)[C@H](CCC(N)=O)NC(=O)[C@H](CC(C)C)NC(=O)[C@H](Cc1ccccc1)NC(=O)[C@H](CCCC(=O)O)NC(=O)[C@H](C)NC(=O)[C@H](CC(C)C)NC(=O)[C@H](CCCNC(=N)N)NC(=O)[C@H](CCC(=O)O)NC(=O)[C@@H](NC(=O)[C@H](C)NC(=O)[C@@H]1CCCCNC(=O)C[C@H](NC(=O)[C@H](CCCNC(=N)N)NC(=O)CC[C@H](NC(=O)CCCCCCCCCCCCCCCCCCC(=O)O)C(=O)O)C(=O)NCC(=O)N[C@@H]([C@@H](C)O)C(=O)N[C@@H](C)C(=O)N[C@@H]([C@@H](C)O)C(=O)N1)[C@@H](C)O [Compound 33, [19CD]-isoGlu-RD()GTATK()ATERLA-Aad-FLQRANF-Gly(Me)-A-Ile(Me)-LSSTEVGSNT-Hyp-NH2] ({C20 diacid-γGlu}-RDGTATKATERLA[Aad]FLQRANF[Sar]A[NMeI]LSSTEVGSNT[Hyp]-NH2; lactam 2-7)",0.019,9,FND,FND,FND,<1,<1,1,–,–,–
"CC[C@H](C)[C@@H](C(=O)N[C@@H](CC(C)C)C(=O)N[C@@H](CO)C(=O)N[C@@H](CO)C(=O)N[C@H](C(=O)N[C@@H](CCC(=O)O)C(=O)N[C@H](C(=O)NCC(=O)N[C@@H](CO)C(=O)N[C@@H](CC(N)=O)C(=O)N[C@H](C(=O)N1C[C@H](O)C[C@H]1C(N)=O)[C@@H](C)O)C(C)C)[C@@H](C)O)N(C)C(=O)[C@H](C)NC(=O)CN(C)C(=O)[C@H](Cc1ccccc1)NC(=O)CNC(=O)CNC(=O)[C@H](CCCNC(=N)N)NC(=O)[C@H](CCC(N)=O)NC(=O)[C@H](CC(C)C)NC(=O)[C@H](Cc1ccccc1)NC(=O)[C@H](CCCC(=O)O)NC(=O)[C@H](C)NC(=O)[C@H](CC(C)C)NC(=O)[C@H](CCCNC(=N)N)NC(=O)[C@H](CCC(=O)O)NC(=O)[C@@H](NC(=O)[C@H](C)NC(=O)[C@@H]1CCCCNC(=O)C[C@H](NC(=O)[C@H](CCCNC(=N)N)NC(=O)CC[C@H](NC(=O)CCCCCCCCCCCCCCCCCCC(=O)O)C(=O)O)C(=O)NCC(=O)N[C@@H]([C@@H](C)O)C(=O)N[C@@H](C)C(=O)N[C@@H]([C@@H](C)O)C(=O)N1)[C@@H](C)O [Compound 32, [19CD]-isoGlu-RD()GTATK()ATERLA-Aad-FLQRGGF-Gly(Me)-A-Ile(Me)-LSSTEVGSNT-Hyp-NH2] ({C20 diacid-γGlu}-RDGTATKATERLA[Aad]FLQRGGF[Sar]A[NMeI]LSSTEVGSNT[Hyp]-NH2; lactam 2-7)",0.006,5,FD,FND,FND,2.2,1.3,<1,<1,<1,<1
"CC[C@H](C)[C@@H](C(=O)N1CCC[C@H]1C(=O)N[C@@H](CO)C(=O)N[C@@H](CO)C(=O)N[C@H](C(=O)N[C@@H](CCC(=O)O)C(=O)N[C@H](C(=O)NCC(=O)N[C@@H](CO)C(=O)N[C@@H](CC(N)=O)C(=O)N[C@H](C(=O)N1C[C@H](O)C[C@H]1C(N)=O)[C@@H](C)O)C(C)C)[C@@H](C)O)N(C)C(=O)[C@H](C)NC(=O)CN(C)C(=O)[C@H](Cc1ccccc1)NC(=O)[C@H](CO)NC(=O)[C@H](CO)NC(=O)[C@H](CCCNC(=N)N)NC(=O)[C@H](CCC(N)=O)NC(=O)[C@H](CC(C)C)NC(=O)[C@H](Cc1ccccc1)NC(=O)[C@H](CCCC(=O)O)NC(=O)[C@H](C)NC(=O)[C@H](CC(C)C)NC(=O)[C@H](CCCNC(=N)N)NC(=O)[C@H](CCC(=O)O)NC(=O)[C@@H](NC(=O)[C@H](C)NC(=O)[C@@H]1CCCNC(=O)C[C@H](NC(=O)[C@H](CCCNC(=N)N)NC(=O)CC[C@H](NC(=O)CCCCCCCCCCCCCCCCCCC(=O)O)C(=O)O)C(=O)NCC(=O)N[C@@H]([C@@H](C)O)C(=O)N[C@@H](C)C(=O)N[C@@H]([C@@H](C)O)C(=O)N1)[C@@H](C)O [Compound 21, [19CD]-isoGlu-RD()GTAT-Orn()-ATERLA-Aad-FLQRSSF-Gly(Me)-A-Ile(Me)-PSSTEVGSNT-Hyp-NH2] ({C20 diacid-γGlu}-RDGTAT[Orn]ATERLA[Aad]FLQRSSF[Sar]A[NMeI]PSSTEVGSNT[Hyp]-NH2; lactam 2-7)",0.037,10,FND,FND,FND,<1,<1,<1,–,–,–
